Counter-ions that a name gives are not always drawn. Like-named read-outs stand apart in the source and are kept apart here.
Assays:
Calu3 cells = test system: Calu3 cells
Description: (§1) Compounds were acoustically transferred into black 384 well optical bottom plates (Nunc-UK). Calu-3 and Vero cells were maintained as described for the infection assay and seeded in the assay-ready plates at a density of 3×10^3 cells/well for Vero cells, and 9×10^3 cells/well for Calu-3 cells. Plates were incubated for 72 h at 37° C. and 5% CO2. To assess cell toxicity, CellTox™ Green Cytotoxicity Assay (Promega-UK) was undertaken following the manufacturer's instructions. Plates were incubated for 15 min prior to recording fluorescence (480/520 nm) using a […] (CLARIOstar Plus; BMG LABTECH, UK).

Vero cells = test system: Vero cells
Description: as §1

SARS-COV-2 [1] = assay: microbe, parasite or virus in culture; type: cell-based; conditions: for decrease in the amount of virus released from infected Calu3 cells: pretreatment 24 h, PHE strain MOI 0.1, plaque assay; for IC50: Severe acute respiratory syndrome coronavirus 2, Calu-3, drug alone, infected Calu3 cells, pre-treated 24 hours prior to infection, 6 concentrations
SARS-COV-2 NSP12 RNA = assay: RT-qPCR of viral NSP12 RNA in infected Calu3 cells; type: cell-based
SARS-COV-2 [2] = type: cell-based
SARS-COV-2 [3] = assay: microbe, parasite or virus in culture; conditions: Severe acute respiratory syndrome coronavirus 2, Calu-3, in Homo sapiens, read-out: protection from infection of SARS-COV-2 (percent inhibition of CPE)
SARS-COV-2 [4] = conditions: 5 μM, Calu3 and Vero cells, MOI 0.1, CPE 3 days post infection

Q: What does the source list for `CN1CCC(=C2c3ccccc3CCc3cccnc32)CC1` [Azatadine]?
A: cytotoxicity on Calu3 cells (Calu3 cells): not cytotoxic; cytotoxicity on Vero cells (Vero cells): not cytotoxic; decrease in the amount of virus released from infected Calu3 cells (SARS-COV-2 [1]; 5 μM): ~100 fold; decrease in the amount of virus released from infected Calu3 cells (SARS-COV-2 [1]; 25 μM): ~5000 fold; IC50 (SARS-COV-2 [1]): ~4900 nM; levels of mature infectious viral particles released from infected cells (SARS-COV-2 [1]; both concentrations (5 and 25 μM), plaque assay): substantially reduced; reduction of viral NSP12 RNA levels (SARS-COV-2 NSP12 RNA; 5 μM, infected Calu3 cells): ~50%; levels of viral NSP12 RNA (SARS-COV-2 NSP12 RNA; both concentrations (5 and 25 μM), RT-qPCR): substantially reduced; reduction of virus growth kinetics (SARS-COV-2 [2]): 10^2 PFU/mL; SARS-COV-2 titres following treatment (SARS-COV-2 [2]; donor #311, 25 μM): no difference; IFNλ release and/or activity (expression) (IFNλ): enhanced the release and/or activity of IFNλ; SARS-COV-2-mediated cytotoxicity (IFNλ): robustly inhibited; rank among interferon-enhancing drugs (IFNλ): top 1%; IFNλ release and/or activity (expression) (IFNλ; listed as Azatadine maleate): increase IFN-λ expression; inhibition at 5 µM (SARS-COV-2 [3]): ≥ 90%

Q: For `CN1CCC(=C2c3ccccc3C=Cc3ccccc32)CC1` [Cyproheptadine], which “antiviral effects in the screens” value (SARS-COV-2 [4]) is on record?
A: did not show any antiviral effects

Q: Which “IFNλ release and/or activity (expression)” value (IFNλ) does the source give for `O=C(O)COCCN1CCN([C@H](c2ccccc2)c2ccc(Cl)cc2)CC1` [Levocetirizine Dihydrochloride] here?
A: enhanced IFNλ release and/or activity

Q: And the SARS-COV-2-mediated cytotoxicity (IFNλ)?
A: failed to inhibit cytotoxicity

Q: Which results are given for `CCC(CC)COC(=O)[C@H](C)N[P@](=O)(OC[C@H]1O[C@@](C#N)(c2ccc3c(N)ncnn23)[C@H](O)[C@@H]1O)Oc1ccccc1` [Remdesivir]?
A: decrease in the amount of virus released from infected Calu3 cells (SARS-COV-2 [1]; 1 μM): ~5000 fold; IC50 (SARS-COV-2 [1]): ~190 nM; reduction of virus growth kinetics (SARS-COV-2 [2]): 10^3 PFU/mL; reduction in viral titres relative to the DMSO control (SARS-COV-2 [2]; donor #311, 1 μM): 1.47 log10

From patent publication US20240165096A1, “Anti Viral Therapy” (priority 2021, published 2024)
